The results in this text go back to PubChem BioAssay (NCI).

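Method: 48-hour compound exposure of cells in 96-well plates, five concentrations, linear interpolation of endpoints. TGI denotes the concentration required for complete inhibition of growth.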

Test in all cases: NCI anticancer screen, dose series, 48 h
Test [1] deals with HOP-62 NSCLC.
For test [2], the system named is RXF 393 renal.
Test [3] relates to KM12 colon.
Test [4] relates to MDA-N.
Test [5] deals with MDA-MB-231 breast.
Test [6] deals with HCT-116 colon.
For test [7], the system named is TK-10 renal.
Test [8] deals with LOX IMVI melanoma.
Test [9] relates to NCI-H522 lung.
The test system of test [10] is OVCAR-3 ovarian.
For test [11], the system named is NCI-H226 lung.
Test [12] relates to M14 melanoma.
Test [13] deals with UACC-62 melanoma.
The test system of test [14] is DU-145 prostate.
In test [15] the test system is 786-0 renal.
The test system of test [16] is SNB-19 CNS.
Test [17] deals with SW-620 colon.
Test [18] has as its system UO-31 renal.
Test [19] has as its system HT29 colon.

On to `NC(=NCCN1CCCCCCC1)NO`, for which the TGI was over 100 µM in [1]; over 100 µM in [2]; over 100 µM in test [3]; over 100 µM in [4]; over 100 µM in test [5]; 26.7 µM in test [6]. Besides, the TGI in test [7], in test [8], in [9], in [10], in test [11] and in test [12] was over 100 µM in each case. Moreover, the TGI in test [13], in test [14], in [15], in [16], in test [17] and in [18] was over 100 µM in each case. The TGI in test [19] is over 100 µM.

As for `CC(C)n1c(=O)[nH]n(-c2ccccc2)c1=O`, the TGI in test [1], in test [2], in test [3], in [4], in test [5] and in test [6] was over 100 µM in each case. Further, the TGI in test [7], in [8], in test [9], in test [10], in test [11] and in test [12] was over 100 µM each time. Further, the TGI in test [13], in test [14], in test [15], in test [16], in [17] and in test [18] was over 100 µM throughout. The TGI in [19] was over 100 µM.

In the case of `CC(C)(C)OC(=O)CC(NC(=O)OC(C)(C)C)C(=O)NC(C(=O)O)C(O)c1ccccc1` (centres undefined), the TGI in test [1], in test [2], in test [3], in test [4], in test [5] and in test [6] was over 100 µM in each case. For the same molecule, the TGI in test [7], in test [8], in test [9], in test [10], in [11] and in test [12] was over 100 µM each time. The TGI in test [13], in test [14], in [15], in test [16], in test [17] and in test [18] was over 100 µM each time. Also, the TGI in test [19] is over 100 µM.

For `CC1=NN(C(=O)CC(=O)Nc2cccc(C)c2)C(=O)C1N=Nc1ccc(S(=O)(=O)c2ccc(N=NC3C(=O)N(C(=O)CC(=O)Nc4cccc(C)c4)N=C3C)cc2)cc1` (centres undefined), the TGI in test [1], in test [2], in test [3], in test [4], in test [5] and in test [6] was over 100 µM throughout. Further, the TGI in test [7], in test [8], in [9], in test [10], in test [11] and in test [12] was over 100 µM each time. Also, the TGI in test [13], in test [14], in [15], in test [16], in test [17] and in test [18] was over 100 µM in each case. Besides, in test [19], the TGI was over 100 µM.

Regarding `C=C(C)[C@@H]1CCC2=C[C@H](OC2=O)[C@@]2(C)C[C@@H]2C(=O)/C=C(/C)C(=O)[C@H]1OC(C)=O`, the TGI was 97.6 µM in test [1]; over 48 µM in test [2]; 42 µM in test [3]; over 35.8 µM in [4]; over 100 µM in [5]; 20.3 µM in test [6]. Moreover, the TGI in test [7] is over 62.7 µM; in test [8] it was 41.3 µM; in test [9] it was 17.1 µM; in [10] it was over 50.8 µM; in test [11] it was 58.3 µM; in test [12], over 100 µM. The TGI in test [13] was over 73 µM; in [14] it was 21 µM; in test [15], 30.3 µM; in test [16], over 73.7 µM; in [17], over 44.6 µM; in test [18], over 100 µM. In addition, the TGI in test [19] was over 48.4 µM.

For `Cn1c(=O)cc(N=Nc2ccc(Cl)c(Cl)c2)[nH]c1=O`, the TGI was over 100 µM in test [1]; 63.6 µM in test [2]; over 100 µM in test [3]; 37.4 µM in test [4]; 45.3 µM in [5]; 59.6 µM in [6]. The TGI in test [7] is 47.9 µM; in test [8], 34.3 µM; in [9], 49.4 µM; in test [10], 33.2 µM; in test [11] it was over 100 µM; in [12], 47.7 µM. Besides, the TGI was over 100 µM in test [13]; over 100 µM in test [14]; 31.9 µM in test [15]; over 100 µM in test [16]; 58.9 µM in test [17]; over 100 µM in test [18]. The TGI in test [19] was 38.6 µM.
